Article PMC6327040, “A novel scaffold for EGFR inhibition: Introducing N-(3-(3-phenylureido)quinoxalin-6-yl) acrylamide derivatives” (Scientific Reports, 2019)

Columns and labels:
[1] = biological target: EGFRwt (Homo sapiens, UniProt P00533); experiment: HTRF KinEASE-TK biochemical assay (TR-FRET), EGFRwt
Description: (§2) An artificial substrate peptide (TK-substrate from Cisbio) was phosphorylated by EGFR. After completion of the reaction (reaction times: 25 min for wild-type, 15 min for L858R, 20 min for T790M/L858R), the reaction was stopped by addition of a buffer containing EDTA as well as, an anti-phosphotyrosine antibody labeled with europium cryptate and streptavidin labeled with the fluorophore XL665. FRET between europium cryptate and XL665 was measured after an additional hour of incubation to quantify the phosphorylation of the substrate peptide. […] Kinase and inhibitor were preincubated for 30 min (EGFR-wt) and 1 h (EGFR-L858R and EGFR-L858R/T790M) before the reaction was started by addition of ATP and substrate peptide. An EnVision multimode plate reader (Perkin Elmer) was used to measure the fluorescence of the samples at 620 nm (Eu-labeled antibody) and 665 nm (XL665 labeled streptavidin) 50 μs after excitation at 320 nm. The quotient of both intensities for reactions made with eight different inhibitor concentrations was then analyzed using the Quattro Software Suite for IC50-determination. Each reaction was performed in duplicate, and at least three independent determinations of each IC50 were made.

[2] = biological target: EGFRL858R (Homo sapiens, UniProt P00533, L858R); experiment: HTRF KinEASE-TK biochemical assay (TR-FRET), EGFR-L858R
Description: as §2

[3] = biological target: EGFRL858R/T790M (Homo sapiens, UniProt P00533, L858R/T790M); experiment: HTRF KinEASE-TK biochemical assay (TR-FRET), EGFR-L858R/T790M
Description: as §2

[4] = test system: patient-derived tumor cell panel; experiment: Patient-derived tumor cell panel screening (Oncotest); format: cell-based
Description: (§1) Based on this premise, the inhibitory activity of compounds 7a-m towards a patient-derived tumor cell panel[49] was evaluated, using a single screening concentration of 10 μM. […] In fact, it is worth mentioning that, although the data observed in a cellular assay have no direct correlation to EGFR enzymatic tests, this phenomenon is not unusual and is related to the nature of the assays itself. In enzymatic assays there is no influence of membrane permeability issues, while in cell viability assays compounds must penetrate the cell membrane and resist the cellular environment for long enough for the ligand-receptor interaction to occur and to trigger the biological activity.

[5] = test system: BXF 1218L; experiment: PD tumor cell line growth inhibition; format: cell-based; conditions: Bladder, read-out: % inhibition (cellular growth inhibition related to negative control)
Description: as §1

[6] = test system: BXF T24; experiment: PD tumor cell line growth inhibition; format: cell-based; conditions: Bladder, read-out: % inhibition (cellular growth inhibition related to negative control)
Description: as §1

[7] = test system: CNXF A172; experiment: PD tumor cell line growth inhibition; format: cell-based; conditions: Homo sapiens, A 172, Glioblastoma, read-out: % inhibition (cellular growth inhibition related to negative control)
Description: as §1

[8] = test system: CXF Colo205; experiment: PD tumor cell line growth inhibition; format: cell-based; conditions: Homo sapiens, COLO 205, Colon, read-out: % inhibition (cellular growth inhibition related to negative control)
Description: as §1

[9] = test system: CXF DIFI; experiment: PD tumor cell line growth inhibition; format: cell-based; conditions: Homo sapiens, Colon, EGFRdel-exon19 expressed, read-out: % inhibition (cellular growth inhibition related to negative control)
Description: as §1

[10] = test system: CXF HCT116; experiment: PD tumor cell line growth inhibition; format: cell-based; conditions: Homo sapiens, HCT-116, Colon, read-out: % inhibition (cellular growth inhibition related to negative control)
Description: as §1

[11] = test system: CXF RKO; experiment: PD tumor cell line growth inhibition; format: cell-based; conditions: Colon, read-out: % inhibition (cellular growth inhibition related to negative control)
Description: as §1

[12] = test system: CXF SW620; experiment: PD tumor cell line growth inhibition; format: cell-based; conditions: Homo sapiens, SW-620, Colon, read-out: % inhibition (cellular growth inhibition related to negative control)
Description: as §1

[13] = test system: GXA MKN45; experiment: PD tumor cell line growth inhibition; format: cell-based; conditions: Homo sapiens, MKN-45, Stomach, read-out: % inhibition (cellular growth inhibition related to negative control)
Description: as §1

[14] = test system: GXF 251L; experiment: PD tumor cell line growth inhibition; format: cell-based; conditions: Stomach, EGFRdel-exon19 expressed, read-out: % inhibition (cellular growth inhibition related to negative control)
Description: as §1

[15] = test system: LIXF 575L; experiment: PD tumor cell line growth inhibition; format: cell-based; conditions: Liver, read-out: % inhibition (cellular growth inhibition related to negative control)
Description: as §1

[16] = test system: LXFA 629L; experiment: PD tumor cell line growth inhibition; format: cell-based; conditions: Lung, read-out: % inhibition (cellular growth inhibition related to negative control)
Description: as §1

[17] = test system: LXFA NCI-H1975; experiment: PD tumor cell line growth inhibition; format: cell-based; conditions: Homo sapiens, Lung, read-out: % inhibition (cellular growth inhibition related to negative control)
Description: as §1

[18] = test system: LXFA PC9; experiment: PD tumor cell line growth inhibition; format: cell-based; conditions: Lung, EGFRdel-exon19 expressed, read-out: % inhibition (cellular growth inhibition related to negative control)
Description: as §1

[19] = test system: LXFL 529L; experiment: PD tumor cell line growth inhibition; format: cell-based; conditions: Lung, EGFR overexpressed, read-out: % inhibition (cellular growth inhibition related to negative control)
Description: as §1

[20] = test system: LXFL H460; experiment: PD tumor cell line growth inhibition; format: cell-based; conditions: Homo sapiens, NCI-H460, Lung, read-out: % inhibition (cellular growth inhibition related to negative control)
Description: as §1

[21] = test system: MAXF 401NL; experiment: PD tumor cell line growth inhibition; format: cell-based; conditions: Breast, read-out: % inhibition (cellular growth inhibition related to negative control)
Description: as §1

[22] = test system: MAXF MCF7; experiment: PD tumor cell line growth inhibition; format: cell-based; conditions: Homo sapiens, Breast, read-out: % inhibition (cellular growth inhibition related to negative control)
Description: as §1

[23] = test system: MAXF MDA231; experiment: PD tumor cell line growth inhibition; format: cell-based; conditions: Homo sapiens, MDA-MB-231, Breast, read-out: % inhibition (cellular growth inhibition related to negative control)
Description: as §1

[24] = test system: MEXF 1539L; experiment: PD tumor cell line growth inhibition; format: cell-based; conditions: Melanoma, read-out: % inhibition (cellular growth inhibition related to negative control)
Description: as §1

[25] = test system: MEXF 1737l; experiment: PD tumor cell line growth inhibition; format: cell-based; conditions: Melanoma, read-out: % inhibition (cellular growth inhibition related to negative control)
Description: as §1

[26] = test system: MEXF 276L; experiment: PD tumor cell line growth inhibition; format: cell-based; conditions: Homo sapiens, MEXF276L, Melanoma, read-out: % inhibition (cellular growth inhibition related to negative control)
Description: as §1

[27] = test system: OVXF 899L; experiment: PD tumor cell line growth inhibition; format: cell-based; conditions: Ovary, read-out: % inhibition (cellular growth inhibition related to negative control)
Description: as §1

[28] = test system: PAXF 1657l; experiment: PD tumor cell line growth inhibition; format: cell-based; conditions: Pancreas, read-out: % inhibition (cellular growth inhibition related to negative control)
Description: as §1

[29] = test system: PAXF 546L; experiment: PD tumor cell line growth inhibition; format: cell-based; conditions: Pancreas, read-out: % inhibition (cellular growth inhibition related to negative control)
Description: as §1

[30] = test system: PRXF DU145; experiment: PD tumor cell line growth inhibition; format: cell-based; conditions: Homo sapiens, DU-145, Prostate, read-out: % inhibition (cellular growth inhibition related to negative control)
Description: as §1

[31] = test system: RXF 486L; experiment: PD tumor cell line growth inhibition; format: cell-based; conditions: Kidney, read-out: % inhibition (cellular growth inhibition related to negative control)
Description: as §1

[32] = test system: RXF 786-O; experiment: PD tumor cell line growth inhibition; format: cell-based; conditions: Homo sapiens, 786-0, Kidney, read-out: % inhibition (cellular growth inhibition related to negative control)
Description: as §1

[33] = test system: SXF1301L; experiment: PD tumor cell line growth inhibition; format: cell-based; conditions: Sarcoma, read-out: % inhibition (cellular growth inhibition related to negative control)
Description: as §1

[34] = test system: UXF 1138L; experiment: PD tumor cell line growth inhibition; format: cell-based; conditions: Uterus, read-out: % inhibition (cellular growth inhibition related to negative control)
Description: as §1

Sequence of EGFRL858R (P00533 25-1210 L858R): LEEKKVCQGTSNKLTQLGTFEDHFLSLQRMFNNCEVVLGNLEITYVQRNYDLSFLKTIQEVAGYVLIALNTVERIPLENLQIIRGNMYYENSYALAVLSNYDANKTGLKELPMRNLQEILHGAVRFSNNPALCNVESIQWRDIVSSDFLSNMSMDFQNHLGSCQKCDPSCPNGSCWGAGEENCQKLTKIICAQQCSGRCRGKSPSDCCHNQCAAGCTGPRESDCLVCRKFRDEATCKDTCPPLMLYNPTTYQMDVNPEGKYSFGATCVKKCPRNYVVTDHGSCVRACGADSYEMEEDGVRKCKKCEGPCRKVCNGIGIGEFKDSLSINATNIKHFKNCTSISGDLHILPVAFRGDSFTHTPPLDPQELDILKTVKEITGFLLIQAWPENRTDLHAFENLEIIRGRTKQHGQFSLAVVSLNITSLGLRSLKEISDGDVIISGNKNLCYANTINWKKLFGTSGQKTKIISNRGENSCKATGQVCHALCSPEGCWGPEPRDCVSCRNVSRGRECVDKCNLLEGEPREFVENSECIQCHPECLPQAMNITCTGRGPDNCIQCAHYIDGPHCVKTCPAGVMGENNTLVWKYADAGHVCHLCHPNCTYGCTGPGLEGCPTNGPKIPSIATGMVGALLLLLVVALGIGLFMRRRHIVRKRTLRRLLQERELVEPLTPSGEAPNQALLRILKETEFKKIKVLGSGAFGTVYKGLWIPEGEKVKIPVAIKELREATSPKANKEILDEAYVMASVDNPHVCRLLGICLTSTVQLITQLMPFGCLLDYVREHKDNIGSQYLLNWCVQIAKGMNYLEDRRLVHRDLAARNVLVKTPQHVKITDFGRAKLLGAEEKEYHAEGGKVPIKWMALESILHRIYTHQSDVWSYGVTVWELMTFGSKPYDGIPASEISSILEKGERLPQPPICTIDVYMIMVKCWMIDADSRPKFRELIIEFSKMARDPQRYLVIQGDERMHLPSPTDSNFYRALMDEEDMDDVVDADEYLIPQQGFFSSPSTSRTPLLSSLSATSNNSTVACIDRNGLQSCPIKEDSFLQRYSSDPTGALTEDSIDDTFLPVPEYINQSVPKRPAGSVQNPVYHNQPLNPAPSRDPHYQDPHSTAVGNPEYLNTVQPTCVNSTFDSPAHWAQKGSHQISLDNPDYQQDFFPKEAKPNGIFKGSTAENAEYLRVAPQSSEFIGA
Sequence of EGFRL858R/T790M (P00533 25-1210 T790M/L858R): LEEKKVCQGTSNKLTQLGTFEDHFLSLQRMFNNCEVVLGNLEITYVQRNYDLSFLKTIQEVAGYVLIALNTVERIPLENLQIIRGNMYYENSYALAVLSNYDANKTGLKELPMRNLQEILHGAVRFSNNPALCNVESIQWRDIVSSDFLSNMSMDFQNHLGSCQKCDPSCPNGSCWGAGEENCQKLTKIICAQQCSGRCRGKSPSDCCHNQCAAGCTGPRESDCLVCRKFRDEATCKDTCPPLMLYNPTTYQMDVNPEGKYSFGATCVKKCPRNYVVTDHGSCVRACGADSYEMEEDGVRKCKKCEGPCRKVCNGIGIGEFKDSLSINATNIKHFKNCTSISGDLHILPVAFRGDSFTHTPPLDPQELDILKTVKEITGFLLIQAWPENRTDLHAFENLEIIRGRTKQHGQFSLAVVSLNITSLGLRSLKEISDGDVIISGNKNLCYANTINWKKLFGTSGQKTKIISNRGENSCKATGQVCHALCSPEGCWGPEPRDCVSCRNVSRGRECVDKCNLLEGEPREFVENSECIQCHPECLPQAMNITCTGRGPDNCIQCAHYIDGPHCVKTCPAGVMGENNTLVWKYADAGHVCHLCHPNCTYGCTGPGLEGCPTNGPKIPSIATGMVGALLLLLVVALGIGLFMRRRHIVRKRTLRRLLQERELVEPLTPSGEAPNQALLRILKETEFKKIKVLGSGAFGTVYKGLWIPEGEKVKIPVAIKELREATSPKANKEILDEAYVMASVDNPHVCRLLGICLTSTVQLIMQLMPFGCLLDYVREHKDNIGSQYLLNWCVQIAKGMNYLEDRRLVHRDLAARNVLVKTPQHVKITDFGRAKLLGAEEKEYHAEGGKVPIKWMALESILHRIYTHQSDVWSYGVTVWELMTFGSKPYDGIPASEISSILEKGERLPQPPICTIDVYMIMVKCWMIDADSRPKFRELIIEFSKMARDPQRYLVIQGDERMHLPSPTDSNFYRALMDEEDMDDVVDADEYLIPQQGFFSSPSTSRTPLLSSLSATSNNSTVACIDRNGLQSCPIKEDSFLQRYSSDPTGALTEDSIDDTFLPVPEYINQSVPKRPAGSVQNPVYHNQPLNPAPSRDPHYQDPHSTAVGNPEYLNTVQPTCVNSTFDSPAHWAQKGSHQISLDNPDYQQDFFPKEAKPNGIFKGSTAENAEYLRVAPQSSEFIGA
Sequence of EGFRwt (P00533 25-1210): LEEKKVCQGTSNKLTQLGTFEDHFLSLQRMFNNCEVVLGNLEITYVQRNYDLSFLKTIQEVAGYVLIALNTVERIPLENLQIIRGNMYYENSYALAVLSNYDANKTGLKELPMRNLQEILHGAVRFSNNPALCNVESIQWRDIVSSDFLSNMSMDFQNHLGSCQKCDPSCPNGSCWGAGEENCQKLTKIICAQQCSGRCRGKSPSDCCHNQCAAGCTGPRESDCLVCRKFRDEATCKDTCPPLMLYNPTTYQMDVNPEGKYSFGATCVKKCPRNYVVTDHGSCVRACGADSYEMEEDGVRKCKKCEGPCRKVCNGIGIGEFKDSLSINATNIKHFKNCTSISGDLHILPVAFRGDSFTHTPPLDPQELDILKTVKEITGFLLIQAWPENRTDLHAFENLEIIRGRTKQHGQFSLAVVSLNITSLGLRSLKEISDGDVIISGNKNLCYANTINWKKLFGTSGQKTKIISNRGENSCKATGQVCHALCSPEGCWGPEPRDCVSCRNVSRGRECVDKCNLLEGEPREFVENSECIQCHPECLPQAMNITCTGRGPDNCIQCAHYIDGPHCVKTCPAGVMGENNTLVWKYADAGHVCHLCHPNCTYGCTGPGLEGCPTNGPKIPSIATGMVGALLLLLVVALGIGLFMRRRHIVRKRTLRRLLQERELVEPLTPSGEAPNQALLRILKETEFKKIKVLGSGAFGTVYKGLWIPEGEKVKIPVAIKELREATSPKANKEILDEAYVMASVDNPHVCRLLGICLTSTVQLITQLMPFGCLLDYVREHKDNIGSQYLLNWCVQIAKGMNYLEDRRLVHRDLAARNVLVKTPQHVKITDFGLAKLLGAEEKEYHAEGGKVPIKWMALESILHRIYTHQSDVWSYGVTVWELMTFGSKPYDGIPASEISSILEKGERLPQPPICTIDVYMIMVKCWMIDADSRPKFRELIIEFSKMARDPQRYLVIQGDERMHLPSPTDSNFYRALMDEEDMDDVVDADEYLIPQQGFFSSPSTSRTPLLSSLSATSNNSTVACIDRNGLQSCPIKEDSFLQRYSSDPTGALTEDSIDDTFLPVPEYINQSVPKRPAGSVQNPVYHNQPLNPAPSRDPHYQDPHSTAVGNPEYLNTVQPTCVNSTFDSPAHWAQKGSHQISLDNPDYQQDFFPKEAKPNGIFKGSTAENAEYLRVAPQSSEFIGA

Structure (SMILES): N#CCC(=O)Nc1ccc2ncc(NC(=O)Nc3ccc(Cl)c(C(F)(F)F)c3)nc2c1 [Compound 7d, N-(3-(3-(4-chloro-3-(trifluoromethyl)phenyl)ureido)quinoxalin-6-yl)-2-cyanoacetamide]
- melting point: 243 to 246 °C
- IC50 [1]: > 10000 nM
- IC50 [2]: > 10000 nM
- IC50 [3]: 9870 ± 265 nM

Structure (SMILES): N#CCC(=O)Nc1ccc2ncc(NC(=O)Nc3ccccc3)nc2c1 [Compound 7k, 2-cyano-N-(3-(3-phenylureido)quinoxalin-6-yl)acetamide]
- melting point: 238 to 241 °C
- IC50 [1]: 3120 ± 787 nM
- IC50 [2]: 445 ± 105 nM
- IC50 [3]: 6290 ± 2790 nM

Structure (SMILES): C=CC(=O)Nc1ccc2ncc(NC(=O)Nc3ccccc3)nc2c1 [Compound 7h, N-(3-(3-phenylureido)quinoxalin-6-yl)acrylamide]
- inhibition at 10 µM ([4]; 10 μM, GXF 251L, CXF DiFi, LXFA PC9, LXFL 529L and LXFA NCI-H1975 cell lines, read-out: growth inhibition effect): 55 to 77%
- tumor cell lines' growth inhibition / cytotoxic activity (in words) ([4]; single screening concentration of 10 μM): important cytotoxic activity
- inhibition at 10 µM [5]: 84%
- inhibition at 10 µM [6]: 76%
- inhibition at 10 µM [7]: 86%
- inhibition at 10 µM [8]: 56%
- inhibition at 10 µM [9]: 77%
- inhibition at 10 µM [10]: 92%
- inhibition at 10 µM [11]: 82%
- inhibition at 10 µM [12]: 82%
- inhibition at 10 µM [13]: 8%
- inhibition at 10 µM [14]: 55%
- inhibition at 10 µM [15]: 40%
- inhibition at 10 µM [16]: 76%
- inhibition at 10 µM [17]: 68%
- inhibition at 10 µM [18]: 75%
- inhibition at 10 µM [19]: 74%
- inhibition at 10 µM [20]: 33%
- inhibition at 10 µM [21]: 72%
- inhibition at 10 µM [22]: 76%
- inhibition at 10 µM [23]: 67%
- inhibition at 10 µM [24]: 93%
- inhibition at 10 µM [25]: 15%
- inhibition at 10 µM [26]: 88%
- inhibition at 10 µM [27]: 87%
- inhibition at 10 µM [28]: 89%
- inhibition at 10 µM [29]: 58%
- inhibition at 10 µM [30]: 91%
- inhibition at 10 µM [31]: 86%
- inhibition at 10 µM [32]: 80%
- inhibition at 10 µM [33]: 89%
- inhibition at 10 µM [34]: 91%
- IC50 [1]: 25 ± 4 nM
- IC50 [2]: 18 ± 3 nM
- IC50 [3]: 1680 ± 1510 nM
- inhibitory activity on EGFRL858R/T790M (in words) ([3]; enzymatic in vitro determination): weak inhibition
